Data as given in BindingDB's records for PubMed 31759729 (University of Electronic Science and Technology of China, 2020).

Molecular target: cGMP-specific 3',5'-cyclic phosphodiesterase (Homo sapiens, UniProt O76074)
Test: Inhibition of PDE-5A (unknown origin)

| IC50 [µM] | SMILES |
| --- | --- |
| 0.5 | CC(C)=CCC1=C(O)c2c(occ(-c3ccc(O[N+](=O)[O-])cc3)c2=O)C2C=CC(C)(C)OC12 (configuration not stated) |
| 2.7 | CC(C)=CCc1c(O)c2c(c3c1OC(C)(C)C=C3)CC=C(c1ccc3c(c1)OCCO3)C2=O |
